Test results published in patent US20190249134A1, “CELL CULTURES AND USE THEREOF” (Boston Biomedical, Inc., priority 2016, published 2019).

How the values were obtained:
[1] = system: A549 cells; assay: Sphere formation assay in alginate-based 3D cell culture, IC50 compared with clonogenic assay in conventional 2D culture; details: for IC50 in the alginate-based 3D cell culture relative to the conventional 2D culture: 3D sphere formation vs 2D clonogenic assay, FIG. 4A; for fold change resistance (IC50 in alginate-based 3D cell culture divided by IC50 in conventional 2D culture): FIG. 4B
From the text: Without limiting the scope of the present disclosure or appended claims with any particular theory or hypothesis, since the stemness is associated with a resistance to chemotherapy, cells cultured in an alginate-based 3D cell culture may be more resistant to chemotherapy drugs and more sensitive to stemness-targeting drugs than cells cultured in traditional 2D cultures. To evaluate the response of cells to drugs, the IC50 values of cells in both the alginate-based 3D and the conventional 2D cell cultures were determined. FIG. 4A summarizes the IC50 of the CSC-targeting therapies (BBI-608, BBI-503), chemotherapies (doxorubicin and gemcitabine), and a targeted therapy (sunitinib) with respect to A549 cells in the alginate-based 3D cell culture and the traditional 2D culture. […] To compare the effect of culturing cells in the alginate-based 3D and the conventional 2D cell cultures on IC50, the fold change in resistance can be calculated by obtaining the ratio of IC50 value in the alginate-based 3D cell culture to the IC50 value in the conventional 2D culture.
Into each well of a flat bottom-96 well plate, 30 μL suspension of the cells in alginate solution was dispensed. 9 μL of crosslinking solution was then added to each well to form alginate gels and thus embed A549 cells into the gel matrix. The plates were then incubated for 15 minutes at 37° C. to ensure a complete gelling of alginate, and then cultured in Prime XV media overnight. After the overnight culture, the cells were treated with various concentrations of BBI-608, BBI-503, sunitinib, doxorubicin, or gemcitabine for 24 h. The plates were then washed and cultured in fresh media for an additional 11 days before imaging the cultures with Celigo Imaging Cytometer (Nexcelcom Bioscience, Lawrence, Mass.). The number of spheres were counted, and used to calculate the IC50 values using Prism 5 (GraphPad).
A549 cells were plated in 6-well plates (1×10^3 A549 cells/well). After an overnight incubation in DMEM media, the cells were treated with various concentrations of BBI-608 for 24h, or BBI-503, sunitinib, doxorubicin, and gemcitabine for 72 hours. The plates were washed, and cultured in fresh media for an additional 6 days before staining the colonies with Giemsa Stain (Sigma, St. Louis, Mo.). The colonies were imaged using a ChemiDoc™ MP Imaging System (BioRad), and the number of colonies were counted using ImageJ (National Institutes of Health, Bethsada, Md.), and the IC50 values calculated using Prism 5.

[2] = system: A549 cellular spheroids; assay: Efficacy on pre-formed cellular spheroids in alginate-based 3D cell culture (CellTox dead stain); details: pre-formed A549 spheroids (11 days), concentrations near IC50 values, 7 days after drug treatment; FIG. 5
Description: To evaluate the efficacy of the drugs in diffusion-limited environments, A549 cells were embedded and cultured for 11 days before any drug treatment (BBI-608, BBI-503, gemcitabine, or doxorubicin). Spheroids of A549 cells were pre-formed from single cells embedded in an alginate-based 3D cell culture for 11 days. The pre-formed spheroids were treated with drugs (0.3 μM BBI-608, 2.5 μM BBI-503, 30 μM sunitinib, 4 μM doxorubicin, 0.5 μM gemcitabine) and incubated with the dead stain CellTox Dye. Micrographs were taken 7 days after the drug treatments.
In a 6-well plate, A549 cells were embedded in an alginate-based 3D cell culture and cultured for 11 days before addition of BBI-608, BBI-503, sunitinib, doxorubicin, and gemcitabine. Cells were cultured for an additional 7 days before staining them with CellTox™ Green Dye (Promega) to stain the dead cells. Images of the stained samples were taken using an EVOS fluorescence microscope (Life Technologies, Carlsbad, Calif.).

Row | Structure (SMILES) | IC50 in the alginate-based 3D cell culture relative to the conventional 2D culture [1] | fold change resistance (IC50 in alginate-based 3D cell culture divided by IC50 in conventional 2D culture) [1] | cell death, share of spheroids [2]
1 | CCN(CC)CCNC(=O)c1c(C)[nH]c(/C=C2\C(=O)Nc3ccc(-c4csc(-c5ccccc5)n4)cc32)c1C [BBI-503] | lower | less than single-fold | about 90%
2 | COc1cccc2c1C(=O)c1c(O)c3c(c(O)c1C2=O)C[C@@](O)(C(=O)CO)C[C@@H]3O[C@H]1C[C@H](N)[C@H](O)[C@H](C)O1 [doxorubicin, reference compound] | greater |  | 
3 | Nc1ccn([C@@H]2O[C@H](CO)[C@@H](O)C2(F)F)c(=O)n1 [gemcitabine, reference compound] | greater |  | 
4 | CC(=O)c1cc2c(o1)C(=O)c1ccccc1C2=O [BBI-608, 2-acetylnaphtho[2,3-b]furan-4,9-dione] | lower | less than single-fold | about 90%
